Reference: US9770407B2 (Lundbeck Pharmaceuticals LLC, priority 2005, dated 2017)
Several values for one entry are separate records, joined by “and”; a condition that tells them apart may be missing. Equal values may be shown once.

How the values were obtained:
[1] = immediate release and extended release tablets; previously estimated; cited from earlier work
[2] = Estimated dissociation of CBZ from the inclusion complex on dilution in blood; details: based on simulations of dilution effects; assumes no interaction from endogenous agents
Excerpt: These relatively weak associations are within the range (100-20,000 M^−1) of those commonly seen with drug: cyclodextrin complexes (Crit. Rev. Ther. Drug Carrier Systems, 14 (1): 1-104, 1997).
The minimal volume of distribution of a drug administered intravenously is based on the plasma volume, which is approximately 5% of the body weight. Therefore, in a 70 kg subject, the plasma volume is approximately 3.5 L. Alternatively, one could assume that the volume of distribution is extracellular water, accounting for approximately 30% of the total body weight, in which case the volume of distribution is about 21 L.
If a 20 mL dose were administered, the dilution ranges from 175-1,050-fold.
Based on the simulations of dilution effects, it appears that 70-95% of the CBZ will immediately dissociate from the inclusion complex in the blood if one assumes no interaction from endogenous agents.

[3] = Phase solubility of CBZ in aqueous Captisol and aqueous Cavitron; format: physicochemical; details: for Measured CBZ conc: ambient laboratory temperature; for Measured CBZ conc, Ave: average of the three determinations
Procedure: The percent weight/volume cyclodextrin solutions were prepared by adding the appropriate amount of cyclodextrin to a flask and filling to the desired total volume (10 mL) with water, as shown in the following Table 4. An excess of carbamazepine was added to each eppendorf tube. Appropriate vehicles were added to each tube and the final volumes were 1 mL. The solubility of CBZ was determined at ambient laboratory temperatures in various concentrations of aqueous Captisol and aqueous Cavitron (brand names of modified cyclodextrins useful in the present invention). The drug substance was added to a microcentrifuge tube and the appropriate vehicle was added. Periodically, the samples were centrifuged and then an aliquot was removed from the supernatant, diluted as necessary and assayed by HPLC to determine the concentration. The phase solubility was evaluated at least three times during each experiment to insure that the mixture achieved equilibrium. […] The solubilities reported in Table 5 are the average of two or three concentration determinations obtained during the respective time course.

SMILES: NC(=O)N1c2ccccc2C=Cc2ccccc21 [Carbamazepine, 5H-dibenz[b,f]azepine-5-carboxamide]
- absolute bioavailability [1]: 75-85
- CBZ that will immediately dissociate from the inclusion complex in the blood [2]: 70-95%
- Measured CBZ conc ([3]; Captisol 0% w/v, CBZ source Orgamol): 0.2 mg/mL
- Measured CBZ conc ([3]; Captisol 0% w/v, CBZ source Spectrum): 0.2 mg/mL
- Measured CBZ conc, Ave ([3]; Captisol 0% w/v): 0.2 mg/mL
- Measured CBZ conc ([3]; Captisol 5% w/v, CBZ source Orgamol, listed as CBZ): 2.2 mg/mL and 2.4 mg/mL
- Measured CBZ conc ([3]; Captisol 5% w/v, CBZ source Spectrum): 2.4 mg/mL
- Measured CBZ conc, Ave ([3]; Captisol 5% w/v): 2.3 mg/mL
- Measured CBZ conc ([3]; Captisol 10% w/v, CBZ source Orgamol, listed as CBZ): 4.1 mg/mL and 4.6 mg/mL
- Measured CBZ conc ([3]; Captisol 10% w/v, CBZ source Spectrum): 6.2 mg/mL
- Measured CBZ conc, Ave ([3]; Captisol 10% w/v): 5.0 mg/mL
- Measured CBZ conc ([3]; Captisol 15% w/v, CBZ source Orgamol, listed as CBZ): 6.4 mg/mL and 7.7 mg/mL
- Measured CBZ conc ([3]; Captisol 15% w/v, CBZ source Spectrum): 6.9 mg/mL
- Measured CBZ conc, Ave ([3]; Captisol 15% w/v): 7.0 mg/mL
- Measured CBZ conc ([3]; Captisol 20% w/v, CBZ source Orgamol, listed as CBZ): 9.2 mg/mL and 10.3 mg/mL
- Measured CBZ conc ([3]; Captisol 20% w/v, CBZ source Spectrum): 9.4 mg/mL
- Measured CBZ conc, Ave ([3]; Captisol 20% w/v): 9.6 mg/mL
- Measured CBZ conc ([3]; Captisol 25% w/v, CBZ source Orgamol, listed as CBZ): 11.4 mg/mL and 12.3 mg/mL
- Measured CBZ conc ([3]; Captisol 25% w/v, CBZ source Spectrum): 11.8 mg/mL
- Measured CBZ conc, Ave ([3]; Captisol 25% w/v): 11.8 mg/mL
- Measured CBZ conc ([3]; Captisol 30% w/v, CBZ source Orgamol, listed as CBZ): 13.5 mg/mL and 15.2 mg/mL
- Measured CBZ conc ([3]; Captisol 30% w/v, CBZ source Spectrum): 14.6 mg/mL
- Measured CBZ conc, Ave ([3]; Captisol 30% w/v): 14.4 mg/mL
- Measured CBZ conc ([3]; Captisol 35% w/v, CBZ source Orgamol, listed as CBZ): 15.9 mg/mL and 18.4 mg/mL
- Measured CBZ conc ([3]; Captisol 35% w/v, CBZ source Spectrum): 16.3 mg/mL
- Measured CBZ conc, Ave ([3]; Captisol 35% w/v): 16.9 mg/mL
- Measured CBZ conc ([3]; Captisol 40% w/v, CBZ source Orgamol, listed as CBZ): 18.3 mg/mL and 20.8 mg/mL
- Measured CBZ conc ([3]; Captisol 40% w/v, CBZ source Spectrum): 19.3 mg/mL
- Measured CBZ conc, Ave ([3]; Captisol 40% w/v): 19.5 mg/mL
- Measured CBZ conc ([3]; Captisol 45% w/v, CBZ source Orgamol, listed as CBZ): 20.6 mg/mL and 22.5 mg/mL
- Measured CBZ conc ([3]; Captisol 45% w/v, CBZ source Spectrum): 21.8 mg/mL
- Measured CBZ conc, Ave ([3]; Captisol 45% w/v): 21.6 mg/mL
- Measured CBZ conc ([3]; Captisol 50% w/v, CBZ source Orgamol, listed as CBZ): 22.5 mg/mL and 24.8 mg/mL
- Measured CBZ conc ([3]; Captisol 50% w/v, CBZ source Spectrum): 26.6 mg/mL
- Measured CBZ conc, Ave ([3]; Captisol 50% w/v): 24.6 mg/mL
- Measured CBZ conc ([3]; Cavitron 0% w/v, CBZ source Orgamol): 0.2 mg/mL
- Measured CBZ conc ([3]; Cavitron 0% w/v, CBZ source Spectrum): 0.3 mg/mL
- Measured CBZ conc ([3]; Cavitron 5% w/v, CBZ source Orgamol, listed as CBZ): 2.7 mg/mL and 3.0 mg/mL
- Measured CBZ conc ([3]; Cavitron 5% w/v, CBZ source Spectrum): 3.8 mg/mL
- Measured CBZ conc, Ave ([3]; Cavitron 5% w/v): 3.2 mg/mL
- Measured CBZ conc ([3]; Cavitron 10% w/v, CBZ source Orgamol, listed as CBZ): 5.4 mg/mL and 5.6 mg/mL
- Measured CBZ conc ([3]; Cavitron 10% w/v, CBZ source Spectrum): 4.1 mg/mL
- Measured CBZ conc, Ave ([3]; Cavitron 10% w/v): 5.0 mg/mL
- Measured CBZ conc ([3]; Cavitron 15% w/v, CBZ source Orgamol, listed as CBZ): 8.2 mg/mL and 8.4 mg/mL
- Measured CBZ conc ([3]; Cavitron 15% w/v, CBZ source Spectrum): 12.3 mg/mL
- Measured CBZ conc, Ave ([3]; Cavitron 15% w/v): 9.6 mg/mL
- Measured CBZ conc ([3]; Cavitron 20% w/v, CBZ source Orgamol, listed as CBZ): 10.9 mg/mL and 11.1 mg/mL
- Measured CBZ conc ([3]; Cavitron 20% w/v, CBZ source Spectrum): 16.4 mg/mL
- Measured CBZ conc, Ave ([3]; Cavitron 20% w/v): 12.8 mg/mL
- Measured CBZ conc ([3]; Cavitron 25% w/v, CBZ source Orgamol, listed as CBZ): 14.0 mg/mL and 14.3 mg/mL
- Measured CBZ conc ([3]; Cavitron 25% w/v, CBZ source Spectrum): 14.8 mg/mL
- Measured CBZ conc, Ave ([3]; Cavitron 25% w/v): 14.4 mg/mL
- Measured CBZ conc ([3]; Cavitron 30% w/v, CBZ source Orgamol, listed as CBZ): 15.9 mg/mL and 16.2 mg/mL
- Measured CBZ conc ([3]; Cavitron 30% w/v, CBZ source Spectrum): 17.9 mg/mL
